The text below walks through data of patent publication US8846666B2, “Oxathiazine derivatives which are substituted with benzyl or heteromethylene groups, method for producing them, their use as medicine and drug containing said derivatives and the use thereof” (Sanofi, priority 2011, dated 2014).

The target of this assay is human 11β-HSD1 microsome fraction (Homo sapiens, UniProt P28845). Kind of assay: Enzymatic 11Beta-HSD1 test (SPA-based detection). The assay is classed as biochemical. Particulars: [1,2-3H]-cortisone, NADPH, 37° C. for 1 hour. How it is done: Enzymatic 11Beta-HSD1 Test:
To measure the activity of the compounds, an SPA-based detection method (Solly et al. 2005) was employed. First of all, 20 μl of the human 11β-HSD1 microsome fraction (0.2 μg of protein), prepared in 50 mM HEPES, 0.1% BSA (w/v), were applied to a plate with 384 wells. The test compounds (0.09 μl) were applied to the assay plate in 100% DMSO. The reaction was started by addition of 20 μl of [1,2-^3H]-cortisone (0.1 μCi/[…]) in assay buffer comprising 25 mM HEPES, 100 mM KCl, 5 mM NaCl, 2 mM MgCl2 and 0.25 mM NADPH. The plate was agitated at 37° C. for 1 hour. At the same time, a stop solution comprising 20 mg/ml SPA-PVT beads, 1.6 mg/ml monoclonal cortisol antibody and 0.01 mM SSR110887 (inhibitor from the Biovitrium patent) in 50 mM HEPES, 1 M NaCl and 1 M KCl was stirred at room temperature. To stop the reaction, 25 μl of the stop solution were added to each well. The plate was agitated gently at room temperature for 1 further hour and then centrifuged at 500 gav for 1 min, in order that the SPA beads could settle out. The plate was then read in a Wallac-1450-Microbeta unit with a standard SPA program (counting time 1 min/well). The comparative compound was glycyrrhetinic acid.
Protein and radioactive substrate were dispensed with a Biomek FX unit (Beckman Coulter) for handling liquids. The test compounds were added with a Cybi-Well equipped with a 90 nl pin tool (CyBio).
Lit.: Solly S, Mundt S S, Zokian H J, Juy-Fang Ding G, Hermanowski-Vosatka A, Strulovici B and Zheng W. High-throughput screening of 11β-Hydroxysteroid dehydrogenase type 1 in scintillation proximity format. Assay Drug Dev Technol 2005; 3:377-384.

The term IC50 denotes the point on the concentration scale where inhibition reaches its midpoint.

Chain of human 11β-HSD1 microsome fraction (P28845 whole entry): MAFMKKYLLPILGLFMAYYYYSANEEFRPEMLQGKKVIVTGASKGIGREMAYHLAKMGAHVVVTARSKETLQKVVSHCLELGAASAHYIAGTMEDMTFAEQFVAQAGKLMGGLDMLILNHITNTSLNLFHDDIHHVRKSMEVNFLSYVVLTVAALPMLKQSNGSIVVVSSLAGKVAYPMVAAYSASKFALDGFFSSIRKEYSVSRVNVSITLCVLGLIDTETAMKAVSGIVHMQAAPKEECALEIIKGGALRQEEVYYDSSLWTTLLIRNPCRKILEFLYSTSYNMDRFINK

`CC1(C)OC(N[C@@H](CCO)c2ccccc2F)=NS(=O)(=O)C1Cc1ccc(C2CCNCC2)cc1` (stereo partly drawn) [Example 22, (S)-3-[6,6-Dimethyl-4,4-dioxo-5-(4-piperidin-4-yl-benzyl)-5,6-dihydro-4H-4lambda6-[1,4,3]oxathiazin-2-ylamino]-3-(2-fluorophenyl)-propan-1-ol] had an IC50 of 7 nM.
The same measure for `CC1(C)OC(N[C@@H](CCO)c2ccccc2F)=NS(=O)(=O)C1Cc1ccc(C2=CCNCC2)cc1` (stereo partly drawn) [Example 23, (S)-3-{6,6-Dimethyl-4,4-dioxo-5-[4-(1,2,3,6-tetrahydro-pyridin-4-yl)-benzyl]-5,6-dihydro-4H-4lambda6-[1,4,3]oxathiazin-2-ylamino}-3-(2-fluoro-phenyl)-propan-1-ol]: 17 nM; for `CN1CCC(c2ccc(CC3C(C)(C)OC(N[C@@H](CCO)c4ccccc4F)=NS3(=O)=O)cc2)CC1` (stereo partly drawn) [Example 25]: 20 nM; for `CC1(C)OC(N[C@@H](CCO)c2ccccc2F)=NS(=O)(=O)C1Cc1ccc(C2CCN(CCCO)CC2)cc1` (stereo partly drawn) [Example 26]: 16 nM.
The same measure for `CC1(C)OC(N[C@@H](CCO)c2ccccc2F)=NS(=O)(=O)C1Cc1ccc(C2CCN(CCO)CC2)cc1` (stereo partly drawn) [Example 27]: 5 nM.
With `CC1(C)OC(N[C@@H](CCO)c2ccccc2F)=NS(=O)(=O)C1Cc1ccc(C2CCN(C3CC3)CC2)cc1` (stereo partly drawn) [Example 28, (S)-3-{5-[4-(1-Cyclopropyl-piperidin-4-yl)-benzyl]-6,6-dimethyl-4,4-dioxo-5,6-dihydro-4H-4lambda6-[1,4,3]oxathiazin-2-ylamino}-3-(2-fluorophenyl)-propan-1-ol], 9 nM corresponded to half-maximal inhibition (IC50).
The same measure for `CC1(C)OC(N[C@@H](CCO)c2ccccc2F)=NS(=O)(=O)C1Cc1ccc(C2CCN(CCC(F)(F)F)CC2)cc1` (stereo partly drawn) [Example 29, (S)-3-(6,6-Dimethyl-4,4-dioxo-5-{4-[1-(3,3,3-trifluoropropyl)-piperidin-4-yl]-benzyl}-5,6-dihydro-4H-4lambda6-[1,4,3]oxathiazin-2-ylamino)-3-(2-fluorophenyl)-propan-1-ol]: 7 nM; for `CC1(C)OC(N[C@@H](CCO)c2ccccc2F)=NS(=O)(=O)C1Cc1ccc(C2CCN(CC3CC3)CC2)cc1` (stereo partly drawn) [Example 30, (S)-3-{5-[4-(1-Cyclopropylmethyl-piperidin-4-yl)-benzyl]-6,6-dimethyl-4,4-dioxo-5,6-dihydro-4H-4lambda6-[1,4,3]oxathiazin-2-ylamino}-3-(2-fluoro-phenyl)-propan-1-ol]: 29 nM.
For the molecule `CC1(C)OC(N[C@@H](CCO)c2ccccc2F)=NS(=O)(=O)C1Cc1ccc(CCCN2CCOCC2)cc1` (stereo partly drawn) [Example 31], 17 nM corresponded to half-maximal inhibition (IC50).
In turn, `CN(C)CCCc1ccc(CC2C(C)(C)OC(N[C@@H](CCO)c3ccccc3F)=NS2(=O)=O)cc1` (stereo partly drawn) [Example 32, (S)-3-{5-[4-(3-Dimethylamino-propyl)-benzyl]-6,6-dimethyl-4,4-dioxo-5,6-dihydro-4H-4lambda6-[1,4,3]oxathiazin-2-ylamino}-3-(2-fluorophenyl)-propan-1-ol] gave a half-maximal inhibitory concentration (IC50) of 32 nM.
The same measure for `CNCCCc1ccc(CC2C(C)(C)OC(N[C@@H](CCO)c3ccccc3F)=NS2(=O)=O)cc1` (stereo partly drawn) [Example 33, (S)-3-{6,6-Dimethyl-5-[4-(3-methylamino-propyl)-benzyl]-4,4-dioxo-5,6-dihydro-4H-4lambda6-[1,4,3]oxathiazin-2-ylamino}-3-(2-fluorophenyl)-propan-1-ol]: 30 nM; for `CC1(C)OC(N[C@@H](CCO)c2ccccc2F)=NS(=O)(=O)[C@@H]1Cc1ccc(C2CCNCC2)cc1` [Example 34, (S)-3-[(R)-6,6-Dimethyl-4,4-dioxo-5-(4-piperidin-4-yl-benzyl)-5,6-dihydro-4H-4lambda6-[1,4,3]oxathiazin-2-ylamino]-3-(2-fluorophenyl)-propan-1-ol]: 8 nM.
